Series [1] is described as follows: Acute toxicity in male balb/c mouse assessed as lethal dose at ip administration. The class given is organism-based. The conditions noted are these: in vivo.
The nature of series [2]: Acute toxicity in male balb/c mouse assessed as alveolar shrinkage in lung administered intraperitoneally by H and E staining based analysis. The class given is tissue-based. The conditions noted are these: in vivo, ip.
Series [3] is described as follows: Acute toxicity in male balb/c mouse assessed as inflammatory cell infiltration in lung administered intraperitoneally by H and E staining based analysis. The conditions noted are these: in vivo, ip. Format: tissue-based.
Series [4] is described as follows: Acute toxicity in male balb/c mouse assessed as respiratory depression by measuring tissue bleeding in lung administered intraperitoneally by H and E staining based analysis. To be noted: in vivo, ip.
Series [5] in a line: Acute toxicity in IP dosed male balb/c mouse assessed as animal death. Format: organism-based. To be noted: in vivo.
Series [6] concerns Staphylococcus aureus. Briefly: Inhibition of biofilm formation in Staphylococcus aureus ATCC 25923 incubated for 24 hrs by crystal violet staining based analysis. The conditions noted are these: dose 1-32 µM. The class given is functional, organism-based.
For series [7], the system named is Escherichia coli. Kind of series: Inhibition of biofilm formation in Escherichia coli ATCC 25922 incubated for 24 hrs by crystal violet staining based analysis. Format: functional, organism-based. The conditions noted are these: dose 1-32 µM.
For series [8], the system named is Klebsiella pneumoniae. Briefly: Inhibition of biofilm formation in Klebsiella pneumoniae ATCC 700603 incubated for 24 hrs by crystal violet staining based analysis. Format: functional, organism-based. To be noted: dose 1-32 µM.
Series [9] concerns Pseudomonas aeruginosa. Briefly: Inhibition of biofilm formation in Pseudomonas aeruginosa ATCC 27853 incubated for 24 hrs by crystal violet staining based analysis. The class given is functional, organism-based. To be noted: dose 1-32 µM.
For series [10], the system named is Escherichia coli. Briefly: Inhibition of biofilm formation in Escherichia coli ATCC 25922 at >= 2 uM incubated for 24 hrs by crystal violet staining based analysis. The class given is functional, organism-based.
The test system of series [11] is Escherichia coli. Briefly: Inhibition of biofilm formation in Escherichia coli ATCC 25922 at 1 uM incubated for 24 hrs by crystal violet staining based analysis. The class given is functional, organism-based.
Series [12] concerns Klebsiella pneumoniae. Kind of series: Inhibition of biofilm formation in Klebsiella pneumoniae ATCC 700603 at 1 uM incubated for 24 hrs by crystal violet staining based analysis. The class given is functional, organism-based.
The subject of series [13] is Cell membrane. Kind of series: Induction of cell membrane permeability in Escherichia coli assessed as rough convex surface at 2 times MIC by SEM analysis. The class given is subcellular.
Series [14] deals with Escherichia coli. Briefly: Antimicrobial activity against Escherichia coli at 2 times MIC in presence of LPS preincubated for 1 hr followed by bacterial addition and measured after 6 hrs by LPS competitive inhibition assay. Format: functional, organism-based.
The subject of series [15] is Cell membrane. Kind of series: Induction of Outer membrane permeabilization in Escherichia coli at 8 uM by NPN-dye based fluorescence analysis. The class given is subcellular.
For series [16], the system named is Klebsiella pneumoniae. Kind of series: In vivo antibacterial activity against Klebsiella pneumoniae ATCC 700603 infected in male Balb/c mouse lung infection model assessed as reduction in alveoli expansion at 10 mg/kg, ip measured after 24 hrs by H and E staining based analysis. The class given is functional, organism-based.
The subject of series [17] is Klebsiella pneumoniae. Kind of series: In vivo antibacterial activity against Klebsiella pneumoniae ATCC 700603 infected in male Balb/c mouse lung infection model assessed as reduction in serous exudation of alveolar cavities at 10 mg/kg, ip measured after 24 hrs by H and E staining based analysis. The class given is functional, organism-based.
Series [18] concerns Klebsiella pneumoniae. Kind of series: In vivo antibacterial activity against Klebsiella pneumoniae ATCC 700603 infected in male Balb/c mouse lung infection model assessed as reduction in crumpling alveoli at 10 mg/kg, ip measured after 24 hrs by H and E staining based analysis. Format: functional, organism-based.
For series [19], the system named is Klebsiella pneumoniae. Kind of series: In vivo antibacterial activity against Klebsiella pneumoniae ATCC 700603 infected in male Balb/c mouse lung infection model assessed as increase on compensatory dilation at 5 mg/kg, ip and measured after 24 hrs. Format: functional, organism-based.
In series [20] the test system is Staphylococcus aureus. Briefly: Antibacterial activity against Staphylococcus aureus ATCC 25923 assessed as inhibition of bacterial growth incubated for 18 hrs by microbroth dilution assay. Format: functional.
The next series has as its system Bacillus subtilis. Kind of series: Antibacterial activity against Bacillus subtilis ATCC 23857 assessed as inhibition of bacterial growth incubated for 18 hrs by microbroth dilution assay. The class given is functional.
Series [21] has as its system Staphylococcus epidermidis. Kind of series: Antibacterial activity against Staphylococcus epidermidis ATCC 12228 assessed as inhibition of bacterial growth incubated for 18 hrs by microbroth dilution assay. Format: functional. On the technique in general: In broth dilution the organism is exposed to a series of concentrations in liquid medium.
The subject of series [22] is Klebsiella pneumoniae. Briefly: Antibacterial activity against Klebsiella pneumoniae ATCC 700603 assessed as inhibition of bacterial growth incubated for 18 hrs by microbroth dilution assay. Format: functional.
The test system of series [23] is Escherichia coli. Kind of series: Antibacterial activity against Escherichia coli ATCC 25922 assessed as inhibition of bacterial growth incubated for 18 hrs by microbroth dilution assay. Format: functional.
Series [24] deals with Pseudomonas aeruginosa. Briefly: Antibacterial activity against Pseudomonas aeruginosa ATCC 27853 assessed as inhibition of bacterial growth incubated for 18 hrs by microbroth dilution assay. Format: functional.
Series [25] concerns Staphylococcus aureus. Kind of series: Antibacterial activity against Staphylococcus aureus ATCC 25923 assessed as fold decrease in presence of 150 mM NaCl. The class given is functional.
Series [26] concerns Staphylococcus aureus. Kind of series: Antibacterial activity against Staphylococcus aureus ATCC 25923 assessed as fold change in activity in presence of 2 mM CaCl2. The class given is functional.
Series [27] has as its system Staphylococcus aureus. Briefly: Antibacterial activity against Staphylococcus aureus ATCC 25923 assessed as fold change in activity in presence of 1 mM MgCl2. The class given is functional.
Series [28] relates to Pseudomonas aeruginosa. Kind of series: Induction of drug resistance in Pseudomonas aeruginosa ATCC 27853 assessed as fold increase in MIC incubated for 24 hrs and measured under 40 passages. Format: functional.
The test system of series [29] is Staphylococcus aureus. Kind of series: Additive antibacterial activity against Staphylococcus aureus assessed as fractional inhibitory concentration index in presence of ciprofloxacin incubated for 18 hrs by checkerboard method. Format: functional.
Series [30] relates to Klebsiella pneumoniae. Kind of series: Bactericidal activity against Klebsiella pneumoniae ATCC 700603 assessed as bacterial eradication by measuring bacterial counts at 2 times MIC measured after 30 mins by Time killing assay relative to control. The class given is functional. To be noted: 0.5 h.
Series [31] relates to Staphylococcus aureus. Briefly: Synergistic antibacterial activity against Staphylococcus aureus assessed as fractional inhibitory concentration index in presence of bacitracin incubated for 18 hrs by checkerboard method. Format: functional.
Series [32] has as its system Escherichia coli. Briefly: Synergistic antibacterial activity against Escherichia coli assessed as fractional inhibitory concentration index in presence of kanamycin incubated for 18 hrs by checkerboard method. The class given is functional.
Series [33] has as its system Escherichia coli. Briefly: Synergistic antibacterial activity against Escherichia coli assessed as fractional inhibitory concentration index in presence of rifampin incubated for 18 hrs by checkerboard method. The class given is functional.
Series [34] has as its system Klebsiella pneumoniae. Kind of series: Additive antibacterial activity against Klebsiella pneumoniae assessed as fractional inhibitory concentration index in presence of kanamycin incubated for 18 hrs by checkerboard method. Format: functional.
For series [35], the system named is Klebsiella pneumoniae. Briefly: Synergistic antibacterial activity against Klebsiella pneumoniae assessed as fractional inhibitory concentration index in presence of rifampin incubated for 18 hrs by checkerboard method. The class given is functional.
The test system of series [36] is Pseudomonas aeruginosa. Kind of series: Synergistic antibacterial activity against Pseudomonas aeruginosa assessed as fractional inhibitory concentration index in presence of imipenem incubated for 18 hrs by checkerboard method. Format: functional.
For series [37], the system named is Pseudomonas aeruginosa. Briefly: Synergistic antibacterial activity against Pseudomonas aeruginosa assessed as fractional inhibitory concentration index in presence of rifampin incubated for 18 hrs by checkerboard method. Format: functional.
Series [38] has as its system Pseudomonas aeruginosa. Briefly: Synergistic antibacterial activity against Pseudomonas aeruginosa assessed as fractional inhibitory concentration index in presence of polymyxin B incubated for 18 hrs by checkerboard method. Format: functional.
In series [39] the test system is Klebsiella pneumoniae. Briefly: In vivo antibacterial activity against Klebsiella pneumoniae ATCC 700603 infected in male Balb/c mouse lung infection model assessed as reduction in pulmonary bacterial load at 5 mg/kg, ip measured after 24 hrs (reference value: 3.05 x 10^9 CFU/g). Format: functional.
Series [40] deals with Klebsiella pneumoniae. Briefly: In vivo antibacterial activity against Klebsiella pneumoniae ATCC 700603 infected in male Balb/c mouse lung infection model assessed as reduction in pulmonary bacterial load at 10 mg/kg, ip measured after 24 hrs (reference value: 3.05 x 10^9 CFU/g). The class given is functional.

The source made the active and inactive calls. Where a SMILES comes first, the peptide text is derived from it. Bridges are numbered along the chain shown (N, C = ends). [ ]: non-standard residue; d: D form. The star is where a group is joined. X1 = CC[C@H](C)CCCCC(=O)*; dDab = NCC[C@@H](N)C(=O)O; Dab = NCC[C@H](N)C(=O)O

In the case of `CC(C)CCCCC(=O)N[C@@H](CCN)C(=O)N[C@H](C(=O)N[C@@H](CCN)C(=O)N[C@H]1CCNC(=O)[C@H]([C@@H](C)O)NC(=O)[C@H](CCN)NC(=O)[C@H](CCN)NC(=O)[C@H](CC(C)C)NC(=O)[C@@H](Cc2ccccc2)NC(=O)[C@H](CCN)NC1=O)[C@@H](C)O.CC[C@H](C)CCCCC(=O)N[C@@H](CCN)C(=O)N[C@H](C(=O)N[C@@H](CCN)C(=O)N[C@H]1CCNC(=O)[C@H]([C@@H](C)O)NC(=O)[C@H](CCN)NC(=O)[C@H](CCN)NC(=O)[C@H](CC(C)C)NC(=O)[C@@H](Cc2ccccc2)NC(=O)[C@H](CCN)NC1=O)[C@@H](C)O` (X1-[Dab]T[Dab][Dab][Dab][dF]L[Dab][Dab]T; lactam 4-C) [listing 1 of 2 here], the median lethal dose (LD50) in series [1] was 17.9 mg/kg. Also, the Activity entry in series [2], in [3], in series [4] and in series [5] was “Toxic” each time.
As to `CC(C)CCCCC(=O)N[C@@H](CCN)C(=O)N[C@H](C(=O)N[C@@H](CCN)C(=O)N[C@H]1CCNC(=O)[C@H]([C@@H](C)O)NC(=O)[C@H](CCN)NC(=O)[C@H](CCN)NC(=O)[C@H](CC(C)C)NC(=O)[C@@H](Cc2ccccc2)NC(=O)[C@@H](CCN)NC1=O)[C@@H](C)O.CC[C@H](C)CCCCC(=O)N[C@@H](CCN)C(=O)N[C@H](C(=O)N[C@@H](CCN)C(=O)N[C@H]1CCNC(=O)[C@H]([C@@H](C)O)NC(=O)[C@H](CCN)NC(=O)[C@H](CCN)NC(=O)[C@H](CC(C)C)NC(=O)[C@@H](Cc2ccccc2)NC(=O)[C@@H](CCN)NC1=O)[C@@H](C)O` (X1-[Dab]T[Dab][Dab][dDab][dF]L[Dab][Dab]T; lactam 4-C), the inhibition entry in the series on Staphylococcus aureus [6], with Escherichia coli [7], in the series on Klebsiella pneumoniae [8] and in the series on Pseudomonas aeruginosa [9] was “Dose-dependent-effect” throughout. The inhibition result in the series on Escherichia coli [10], in the series with Escherichia coli [11] and with Klebsiella pneumoniae [12] was “Active” throughout. The result in the series on Cell membrane [13], with Cell membrane [15], with Klebsiella pneumoniae [16], in the series with Klebsiella pneumoniae [17], with Klebsiella pneumoniae [18] and with Klebsiella pneumoniae [19] was Active. The result in the series with Escherichia coli [14] was inactive.
Turning to `CC(C)CCCCC(=O)N[C@@H](CCN)C(=O)N[C@H](C(=O)N[C@@H](CCN)C(=O)N[C@H]1CCNC(=O)[C@H]([C@@H](C)O)NC(=O)[C@H](CCN)NC(=O)[C@H](CCN)NC(=O)[C@H](CC(C)C)NC(=O)[C@@H](Cc2ccccc2)NC(=O)[C@H](CCN)NC1=O)[C@@H](C)O.CC[C@H](C)CCCCC(=O)N[C@@H](CCN)C(=O)N[C@H](C(=O)N[C@@H](CCN)C(=O)N[C@H]1CCNC(=O)[C@H]([C@@H](C)O)NC(=O)[C@H](CCN)NC(=O)[C@H](CCN)NC(=O)[C@H](CC(C)C)NC(=O)[C@@H](Cc2ccccc2)NC(=O)[C@H](CCN)NC1=O)[C@@H](C)O` (X1-[Dab]T[Dab][Dab][Dab][dF]L[Dab][Dab]T; lactam 4-C) [listing 2 of 2 here], the minimum inhibitory concentration (MIC) in the series on Staphylococcus aureus [20] stood at 8 µM; with Bacillus subtilis it was 4 µM; in series [21], 8 µM; in the series on Klebsiella pneumoniae [22] it was 2 µM; with Escherichia coli [23], 2 µM; with Pseudomonas aeruginosa [24] it was 2 µM. Besides, the “fold change (FC)” value is given as -4 with Staphylococcus aureus [25], -2 with Staphylococcus aureus [26], -2 in the series with Staphylococcus aureus [27] and 8 in the series on Pseudomonas aeruginosa [28]. In addition, the “fractional inhibitory concentration index (FICI)” value in the series with Staphylococcus aureus [29] was 0.75; in the series with Staphylococcus aureus [31], 0.5; in the series on Escherichia coli [32], 0.313; in the series with Escherichia coli [33], 0.313; with Klebsiella pneumoniae [34] it was 0.563; in the series on Klebsiella pneumoniae [35], 0.375. Moreover, the “fractional inhibitory concentration index (FICI)” value turned out to be 0.313 with Pseudomonas aeruginosa [36], 0.313 with Pseudomonas aeruginosa [37] and 0.188 in the series with Pseudomonas aeruginosa [38]. For the same compound, the Activity in the series on Klebsiella pneumoniae [30] was 100%; in the series with Klebsiella pneumoniae [39], 1.48 10^8CFU/g; in the series with Klebsiella pneumoniae [40] it was 2.46 10^8CFU/g.

Broadly, the LD50 is the dose at which mortality reaches 50%. In general, MIC refers to the smallest concentration in the dilution series that meets the test's criterion for growth inhibition.

Values taken from ChEMBL document CHEMBL6087436, “The novel β-hairpin antimicrobial peptide D-G(RF)3 demonstrates exceptional antibacterial efficacy” (Eur J Med Chem, 2025).
